Measured values published in US10894817B2, “Fatty acid modified urocortin-2 analogs for the treatment of diabetes and chronic kidney disease” (priority 2016, dated 2021).
Starred links: 1 amine or outer side, 2 acyl side, 3 side chain; linkers in the order of their positions; H or OH if unused. Non-standard residues stand in square brackets, D forms with d. Residues, ends and D or L forms follow the SMILES beside them. Groups on a side chain read outwards from the residue. *: point of attachment. C20 diacid = O=C(O)CCCCCCCCCCCCCCCCCCC(=O)*; C18 diacid = O=C(O)CCCCCCCCCCCCCCCCC(=O)*; γGlu = O=C(O)[C@H](CCC(=O)[*:2])N[*:1]; Palmitoyl = CCCCCCCCCCCCCCCC(=O)*; NMeI = CC[C@H](C)[C@H](NC)C(=O)O; AEEA = NCCOCCOCC(=O)O

The compounds below were run against T1, human CRHR2b (Homo sapiens, UniProt Q13324) (assay: human CRHR2b cell-based cAMP assay). Conditions: not given.
T1 construct: expressed in transfected cells; host or cells: Chinese Hamster Ovary (CHO) cells, transient transfection
T1 sequence (Q13324 1-438 isoform Q13324-2): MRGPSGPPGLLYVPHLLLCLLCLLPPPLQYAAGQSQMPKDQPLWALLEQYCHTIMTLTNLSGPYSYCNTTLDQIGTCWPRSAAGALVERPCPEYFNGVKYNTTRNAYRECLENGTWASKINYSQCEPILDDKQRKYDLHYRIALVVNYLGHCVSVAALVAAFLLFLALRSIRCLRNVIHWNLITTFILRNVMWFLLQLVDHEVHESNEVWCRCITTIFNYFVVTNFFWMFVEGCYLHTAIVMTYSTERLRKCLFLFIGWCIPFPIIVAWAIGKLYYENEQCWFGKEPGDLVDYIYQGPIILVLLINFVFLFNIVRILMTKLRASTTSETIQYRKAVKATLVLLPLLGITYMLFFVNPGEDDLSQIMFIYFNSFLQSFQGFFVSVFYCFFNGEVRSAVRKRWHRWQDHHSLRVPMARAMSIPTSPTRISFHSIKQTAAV
Outline: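 ED50 values are means ± SEM over several runs, curve-fitted from cAMP in pmol, calibrated against unlabeled-cAMP standards. Detection was HTRF competition, ratio 665/620 nm, after 30 min agonist exposure at 37 °C.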

| SMILES | EC50 |
| --- | --- |
| CC[C@H](C)[C@H](N)C(=O)N[C@H](C(=O)N[C@@H](CC(C)C)C(=O)N[C@@H](CO)C(=O)N[C@@H](CC(C)C)C(=O)N[C@@H](CC(=O)O)C(=O)N[C@H](C(=O)N1CCC[C@H]1C(=O)N[C@H](C(=O)NCC(=O)N[C@@H](CC(C)C)C(=O)N[C@@H](CC(C)C)C(=O)N[C@@H](CCC(N)=O)C(=O)N[C@H](C(=O)N[C@@H](CC(C)C)C(=O)N[C@@H](CC(C)C)C(=O)N[C@@H](CCCCNC(=O)COCCOCCNC(=O)COCCOCCNC(=O)CC[C@H](NC(=O)CC[C@H](NC(=O)CCCCCCCCCCCCCCCCC(=O)O)C(=O)O)C(=O)O)C(=O)N[C@@H](CCC(N)=O)C(=O)N[C@@H](CCC(=O)O)C(=O)N[C@@H](CCCCN)C(=O)N[C@@H](CCC(N)=O)C(=O)N[C@@H](CCC(=O)O)C(=O)N[C@@H](CCCCN)C(=O)N[C@@H](CCC(=O)O)C(=O)N[C@@H](CCCCN)C(=O)N[C@@H](CCC(N)=O)C(=O)N[C@@H](CCC(N)=O)C(=O)N[C@@H](C)C(=O)N[C@H](C(=O)N[C@H](C(=O)N[C@@H](CC(N)=O)C(=O)N[C@@H](C)C(=O)N[C@@H](CCC(N)=O)C(=O)N[C@H](C(=O)N[C@@H](CC(C)C)C(=O)N[C@@H](C)C(=O)N[C@@H](CCC(N)=O)C(=O)N[C@H](C(N)=O)C(C)C)[C@@H](C)CC)[C@@H](C)O)[C@@H](C)O)[C@@H](C)CC)[C@@H](C)CC)C(C)C)C(C)C [Compound 50] (H-IVLSLDVPIGLLQILLK([AEEA-AEEA-γGlu-γGlu-C18 diacid])QEKQEKEKQQATTNAQILAQV-NH2) | 3.56 nM |
| CCCCCCCCCCCCCCCC(=O)N[C@@H](CCC(=O)NCCCC[C@H](NC(=O)[C@H](CC(C)C)NC(=O)[C@H](CC(C)C)NC(=O)[C@@H](NC(=O)[C@H](CCC(N)=O)NC(=O)[C@H](CC(C)C)NC(=O)[C@H](CC(C)C)NC(=O)CNC(=O)[C@@H](NC(=O)[C@@H]1CCCN1C(=O)[C@@H](NC(=O)[C@H](CC(=O)O)NC(=O)[C@H](CC(C)C)NC(=O)[C@H](CO)NC(=O)[C@H](CC(C)C)NC(=O)[C@@H](NC(=O)[C@@H](N)[C@@H](C)CC)C(C)C)C(C)C)[C@@H](C)CC)[C@@H](C)CC)C(=O)N[C@@H](CCC(N)=O)C(=O)N[C@@H](CCC(=O)O)C(=O)N[C@@H](CCCCN)C(=O)N[C@@H](CCC(N)=O)C(=O)N[C@@H](CCC(=O)O)C(=O)N[C@@H](CCCCN)C(=O)N[C@@H](CCC(=O)O)C(=O)N[C@@H](CCCCN)C(=O)N[C@@H](CCC(N)=O)C(=O)N[C@@H](CCC(N)=O)C(=O)N[C@@H](C)C(=O)N[C@H](C(=O)N[C@H](C(=O)N[C@@H](CC(N)=O)C(=O)N[C@@H](C)C(=O)N[C@@H](CCCNC(=N)N)C(=O)N[C@H](C(=O)N[C@@H](CC(C)C)C(=O)N[C@@H](C)C(=O)N[C@@H](CCCNC(=N)N)C(=O)N[C@H](C(N)=O)C(C)C)[C@@H](C)CC)[C@@H](C)O)[C@@H](C)O)C(=O)O [Compound 23] (H-IVLSLDVPIGLLQILLK([γGlu-Palmitoyl])QEKQEKEKQQATTNARILARV-NH2) | 17.9 nM |

Same assay, conditions: cAMP assay; Table 26, compounds of Example 9; read-out: hCRHR2b Average EC50

| EC50 | SMILES |
| --- | --- |
| 3.65 nM | CC[C@H](C)[C@H](NC)C(=O)N[C@H](C(=O)N[C@@H](CC(C)C)C(=O)N[C@@H](CO)C(=O)N[C@@H](CC(C)C)C(=O)N[C@@H](CC(=O)O)C(=O)N[C@H](C(=O)N1CCC[C@H]1C(=O)N[C@H](C(=O)NCC(=O)N[C@@H](CC(C)C)C(=O)N[C@@H](CC(C)C)C(=O)N[C@@H](CCC(N)=O)C(=O)N[C@H](C(=O)N[C@@H](CC(C)C)C(=O)N[C@@H](CC(C)C)C(=O)N[C@@H](CCC(=O)O)C(=O)N[C@@H](CCC(N)=O)C(=O)N[C@@H](CCC(=O)O)C(=O)N[C@@H](CCCCN)C(=O)N[C@@H](CCC(N)=O)C(=O)N[C@@H](CCC(=O)O)C(=O)N[C@@H](CCCCN)C(=O)N[C@@H](CCC(=O)O)C(=O)N[C@@H](CCCCN)C(=O)N[C@@H](CCC(N)=O)C(=O)N[C@@H](CCC(N)=O)C(=O)N[C@@H](C)C(=O)N[C@@H](CCCCNC(=O)COCCOCCNC(=O)CC[C@H](NC(=O)CC[C@H](NC(=O)CCCCCCCCCCCCCCCCCCC(=O)O)C(=O)O)C(=O)O)C(=O)N[C@@H](CCC(=O)O)C(=O)N[C@@H](CC(N)=O)C(=O)N[C@@H](C)C(=O)N[C@@H](CCC(=O)O)C(=O)N[C@H](C(=O)N[C@@H](CC(C)C)C(=O)N[C@@H](C)C(=O)N[C@@H](CCC(N)=O)C(=O)N[C@H](C(N)=O)C(C)C)[C@@H](C)CC)[C@@H](C)CC)[C@@H](C)CC)C(C)C)C(C)C [Compound 57] (H-[NMeI]VLSLDVPIGLLQILLEQEKQEKEKQQAK([AEEA-γGlu-γGlu-C20 diacid])ENAEILAQV-NH2) |
| 27.7 nM | CC[C@H](C)[C@H](N)C(=O)N[C@H](C(=O)N[C@@H](CC(C)C)C(=O)N[C@@H](CO)C(=O)N[C@@H](CC(C)C)C(=O)N[C@@H](CC(=O)O)C(=O)N[C@H](C(=O)N1CCC[C@H]1C(=O)N[C@H](C(=O)NCC(=O)N[C@@H](CC(C)C)C(=O)N[C@@H](CC(C)C)C(=O)N[C@@H](CCC(N)=O)C(=O)N[C@H](C(=O)N[C@@H](CC(C)C)C(=O)N[C@@H](CC(C)C)C(=O)N[C@@H](CCC(=O)O)C(=O)N[C@@H](CCC(N)=O)C(=O)N[C@@H](CCC(=O)O)C(=O)N[C@@H](CCCCN)C(=O)N[C@@H](CCCCNC(=O)COCCOCCNC(=O)COCCOCCNC(=O)CC[C@H](NC(=O)CC[C@H](NC(=O)CCCCCCCCCCCCCCCCC(=O)O)C(=O)O)C(=O)O)C(=O)N[C@@H](CCC(=O)O)C(=O)N[C@@H](CCCCN)C(=O)N[C@@H](CCC(=O)O)C(=O)N[C@@H](CCCCN)C(=O)N[C@@H](CCC(N)=O)C(=O)N[C@@H](CCC(N)=O)C(=O)N[C@@H](C)C(=O)N[C@H](C(=O)N[C@H](C(=O)N[C@@H](CC(N)=O)C(=O)N[C@@H](C)C(=O)N[C@@H](CCC(N)=O)C(=O)N[C@H](C(=O)N[C@@H](CC(C)C)C(=O)N[C@@H](C)C(=O)N[C@@H](Cc1c[nH]cn1)C(=O)N[C@H](C(N)=O)C(C)C)[C@@H](C)CC)[C@@H](C)O)[C@@H](C)O)[C@@H](C)CC)[C@@H](C)CC)C(C)C)C(C)C [Compound 45] (H-IVLSLDVPIGLLQILLEQEKK([AEEA-AEEA-γGlu-γGlu-C18 diacid])EKEKQQATTNAQILAHV-NH2) |
| 1.16 nM | CC[C@H](C)[C@H](N)C(=O)N[C@H](C(=O)N[C@@H](CC(C)C)C(=O)N[C@@H](CO)C(=O)N[C@@H](CC(C)C)C(=O)N[C@@H](CC(=O)O)C(=O)N[C@H](C(=O)N1CCC[C@H]1C(=O)N[C@H](C(=O)NCC(=O)N[C@@H](CC(C)C)C(=O)N[C@@H](CC(C)C)C(=O)N[C@@H](CCC(N)=O)C(=O)N[C@H](C(=O)N[C@@H](CC(C)C)C(=O)N[C@@H](CC(C)C)C(=O)N[C@@H](CCC(=O)O)C(=O)N[C@@H](CCC(N)=O)C(=O)N[C@@H](CCC(=O)O)C(=O)N[C@@H](CCCCN)C(=O)N[C@@H](CCC(N)=O)C(=O)N[C@@H](CCC(=O)O)C(=O)N[C@@H](CCCCN)C(=O)N[C@@H](CCC(=O)O)C(=O)N[C@@H](CCCCN)C(=O)N[C@@H](CCC(N)=O)C(=O)N[C@@H](CCC(N)=O)C(=O)N[C@@H](C)C(=O)N[C@@H](CCCCNC(=O)COCCOCCNC(=O)COCCOCCNC(=O)CC[C@H](NC(=O)CC[C@H](NC(=O)CCCCCCCCCCCCCCCCC(=O)O)C(=O)O)C(=O)O)C(=O)N[C@H](C(=O)N[C@@H](CC(N)=O)C(=O)N[C@@H](C)C(=O)N[C@@H](CCC(N)=O)C(=O)N[C@H](C(=O)N[C@@H](CC(C)C)C(=O)N[C@@H](C)C(=O)N[C@@H](CCC(N)=O)C(=O)N[C@H](C(N)=O)C(C)C)[C@@H](C)CC)[C@@H](C)O)[C@@H](C)CC)[C@@H](C)CC)C(C)C)C(C)C [Compound 52] (H-IVLSLDVPIGLLQILLEQEKQEKEKQQAK([AEEA-AEEA-γGlu-γGlu-C18 diacid])TNAQILAQV-NH2) |
| 2.86 nM | CC[C@H](C)[C@H](N)C(=O)N[C@H](C(=O)N[C@@H](CC(C)C)C(=O)N[C@@H](CO)C(=O)N[C@@H](CC(C)C)C(=O)N[C@@H](CC(=O)O)C(=O)N[C@H](C(=O)N1CCC[C@H]1C(=O)N[C@H](C(=O)N[C@@H](CCCCNC(=O)COCCOCCNC(=O)COCCOCCNC(=O)CC[C@H](NC(=O)CC[C@H](NC(=O)CCCCCCCCCCCCCCCCC(=O)O)C(=O)O)C(=O)O)C(=O)N[C@@H](CC(C)C)C(=O)N[C@@H](CC(C)C)C(=O)N[C@@H](CCC(N)=O)C(=O)N[C@H](C(=O)N[C@@H](CC(C)C)C(=O)N[C@@H](CC(C)C)C(=O)N[C@@H](CCC(=O)O)C(=O)N[C@@H](CCC(N)=O)C(=O)N[C@@H](CCC(=O)O)C(=O)N[C@@H](CCCCN)C(=O)N[C@@H](CCC(N)=O)C(=O)N[C@@H](CCC(=O)O)C(=O)N[C@@H](CCCCN)C(=O)N[C@@H](CCC(=O)O)C(=O)N[C@@H](CCCCN)C(=O)N[C@@H](CCC(N)=O)C(=O)N[C@@H](CCC(N)=O)C(=O)N[C@@H](C)C(=O)N[C@H](C(=O)N[C@H](C(=O)N[C@@H](CC(N)=O)C(=O)N[C@@H](C)C(=O)N[C@@H](CCC(N)=O)C(=O)N[C@H](C(=O)N[C@@H](CC(C)C)C(=O)N[C@@H](C)C(=O)N[C@@H](CCC(N)=O)C(=O)N[C@H](C(N)=O)C(C)C)[C@@H](C)CC)[C@@H](C)O)[C@@H](C)O)[C@@H](C)CC)[C@@H](C)CC)C(C)C)C(C)C [Compound 49] (H-IVLSLDVPIK([AEEA-AEEA-γGlu-γGlu-C18 diacid])LLQILLEQEKQEKEKQQATTNAQILAQV-NH2) |
